Patent US20160039825A1 (BIOGEN MA INC., priority 2013, published 2016)

Molecular target: T1, Human ATX protein (Homo sapiens, UniProt Q13822)
T1 construct: made in house
Assay: Autotaxin (ATX) assay, FRET with FS-3 substrate
Format: biochemical
Settings: for IC50: upper bound bins (no greater than 100, 250 or 500 nM), FS-3 2 μM, ATX 1.0 μg/mL
How it was run: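 In-house human ATX (1.0 μg/mL final) was preincubated with compound for 30 min at room temperature in Tris buffer pH 7.4 with NaCl, KCl, CaCl2, MgCl2 and 1 mg/mL fatty acid-free BSA. FS-3 (2 μM final) was added and the plate shaken 2 h at room temperature in the dark. Fluorescence was read at ex 485/em 538 nm.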

| Structure (SMILES) | IC50 | inhibition at 10 µM (10 uM compound) |
| --- | --- | --- |
| CC1CN(CC(=O)c2cc3n(n2)CCCN(C(=O)OCc2cc(Cl)cc(C(F)(F)F)c2)C3)CCO1 (centres unmarked) [Example 268] | ≤ 100 nM |  |
| CC1CN(CC(=O)c2cc3n(n2)CCCN(C(=O)OCc2cc(Cl)cc(C(F)(F)F)c2)C3)CC(C)O1 (centres unmarked) [Example 269] | ≤ 100 nM |  |
| O=C(CN1CCOCC1)c1cc2n(n1)CCCN(C(=O)OCc1cc(Cl)cc(C(F)(F)F)c1)C2 [Example 271] | ≤ 100 nM |  |
| O=C(CN1CC(C(=O)O)C1)c1cc2n(n1)CCCN(C(=O)OCc1cc(Cl)cc(C(F)(F)F)c1)C2 [Example 272] | ≤ 100 nM |  |
| O=C(CN1CCCC1)c1cc2n(n1)CCCN(C(=O)OCc1cc(Cl)cc(C(F)(F)F)c1)C2 [Example 273] | ≤ 100 nM |  |
| O=C(OCc1cc(Cl)cc(C(F)(F)F)c1)N1CCn2nc(NC3CCNCC3)cc2C1 [Example 274, 3-chloro-5-(trifluoromethyl)benzyl 2-(piperidin-4-ylamino)-6,7-dihydropyrazolo[1,5-a]pyrazine-5(4H)-carboxylate] | ≤ 100 nM |  |
| CN1CCN(C(=O)c2cc3n(c2)CCCN(C(=O)OCc2cc(Cl)cc(C(F)(F)F)c2)C3)CC1 [Example 277, 3-chloro-5-(trifluoromethyl)benzyl 8-(4-methylpiperazine-1-carbonyl)-4,5-dihydro-1H-pyrrolo[1,2-a][1,4]diazepine-2(3H)-carboxylate] | ≤ 100 nM |  |
| CN1C2CCC1CN(C(=O)c1cc3n(c1)CCCN(C(=O)OCc1cc(Cl)cc(C(F)(F)F)c1)C3)C2 [Example 278, 3-chloro-5-(trifluoromethyl)benzyl 8-(8-methyl-3,8-diazabicyclo[3.2.1]octane-3-carbonyl)-4,5-dihydro-1H-pyrrolo[1,2-a][1,4]diazepine-2(3H)-carboxylate] | ≤ 100 nM |  |
| Nc1cc2n(n1)CCCN(C(=O)OCc1cc(C(F)(F)F)cc(C(F)(F)F)c1)C2 [Example 279, 3,5-Bis(trifluoromethyl)benzyl 2-amino-7,8-dihydro-4H-pyrazolo[1,5-a][1,4]diazepine-5(6H)-carboxylate] |  | 60% |
| O=C(OCc1cc(C(F)(F)F)cc(C(F)(F)F)c1)N1CCCn2nc(Br)cc2C1 [Example 280] | ≤ 100 nM |  |

The next lines start with the values.

| IC50 | inhibition at 10 µM (10 uM compound) | Structure (SMILES) |
| --- | --- | --- |
| ≤ 100 nM |  | O=C(OCc1cc(C(F)(F)F)cc(C(F)(F)F)c1)N1CCn2nc(C3CN4CCC[C@@H]4CO3)cc2C1 (stereo partly drawn) [Example 256, 3,5-bis(trifluoromethyl)benzyl 2-((8aR)-hexahydro-1H-pyrrolo[2,1-c][1,4]oxazin-3-yl)-6,7-dihydropyrazolo[1,5-a]pyrazine-5(4H)-carboxylate] |
| ≤ 100 nM |  | CC1COCCN1CC(=O)c1cc2n(n1)CCCN(C(=O)OCc1cc(Cl)cc(C(F)(F)F)c1)C2 (centres unmarked) [Example 257, 3-chloro-5-(trifluoromethyl)benzyl 2-(2-(3-methylmorpholino)acetyl)-7,8-dihydro-4H-pyrazolo[1,5-a][1,4]diazepine-5(6H)-carboxylate] |
| ≤ 100 nM |  | O=C(CN1CC2CC2C1)c1cc2n(n1)CCN(C(=O)OCc1cc(C(F)(F)F)cc(C(F)(F)F)c1)C2 (centres unmarked) [Example 258] |
| ≤ 100 nM |  | O=C(CN1CCOCC1)c1cc2n(n1)CCN(C(=O)OCc1cc(C(F)(F)F)cc(C(F)(F)F)c1)C2 [Example 259] |
| ≤ 100 nM |  | CC1(C)COCCN1CC(=O)c1cc2n(n1)CCN(C(=O)OCc1cc(C(F)(F)F)cc(C(F)(F)F)c1)C2 [Example 260] |
| ≤ 100 nM |  | CC1COCC(C)N1CC(=O)c1cc2n(n1)CCCN(C(=O)OCc1cc(Cl)cc(C(F)(F)F)c1)C2 (centres unmarked) [Example 261] |
| ≤ 100 nM |  | C[C@H]1CCCN1CC(=O)c1cc2n(n1)CCCN(C(=O)OCc1cc(Cl)cc(C(F)(F)F)c1)C2 [Example 262] |
| ≤ 100 nM |  | C[C@@H]1CCCN1CC(=O)c1cc2n(n1)CCCN(C(=O)OCc1cc(Cl)cc(C(F)(F)F)c1)C2 [Example 265] |
| ≤ 100 nM |  | CC1OCCN(CC(=O)c2cc3n(n2)CCCN(C(=O)OCc2cc(Cl)cc(C(F)(F)F)c2)C3)C1C (centres unmarked) [Example 266] |
| ≤ 100 nM |  | CC1(C)COCCN1CC(=O)c1cc2n(n1)CCCN(C(=O)OCc1cc(Cl)cc(C(F)(F)F)c1)C2 [Example 267] |
